Laboratory results taken from US4882313A, “Carboxamide derivatives of glycopeptides” (SmithKline Beckman Corporation, priority 1987, dated 1989).

Experiments:
[1] = pI (analytical data, Table 2); type: physicochemical
From the text: Using substantially the procedures of both Examples 1 and 2, the compounds of Examples 3-15 were obtained by using the appropriate glycopeptide and amine starting materials.

[2] = tested on: Staphylococcus epidermidis; assay: standard microtiter assay, minimum inhibitory concentration; type: cell-based; design: minimum inhibitory concentration of antibiotic, Test Organism 8: unit not given here; conditions: for minimum inhibitory concentration of antibiotic, Test Organism 6: Test Organism 6, strain of Staphylococcus epidermidis; for minimum inhibitory concentration of antibiotic, Test Organism 8: Test Organism 8, strain of Staphylococcus epidermidis; for minimum inhibitory concentration of antibiotic, Test Organism 11: Test Organism 11, strain of Staphylococcus epidermidis; for minimum inhibitory concentration of antibiotic, Test Organism 13: Test Organism 13, strain of Staphylococcus epidermidis; for minimum inhibitory concentration of antibiotic, Test Organism 14: Test Organism 14, strain of Staphylococcus epidermidis
From the text: (§1) Representative results of standard microtiter assays are reported in Table 1 which follows, as the minimum inhibitory concentration of antibiotic (mg/ml). In Table 1, test organisms 1-5 were different strains of Staphylococcus aureus; 6, 8, 11, 13 and 14 were different strains of Staphylococcus epidermidis; 7 was a Staphylococcus haemolyticus; 9 and 10 were different strains of Streptococcus faecalis; and 12 was a Staphylococcus saprophyticus.

[3] = tested on: Staphylococcus saprophyticus; assay: as above; type: cell-based; conditions: Test Organism 12, Staphylococcus saprophyticus
From the text: as §1

Streptococcus faecalis = assay: as above; type: cell-based; conditions: for minimum inhibitory concentration of antibiotic, Test Organism 9: Test Organism 9, strain of Streptococcus faecalis; for minimum inhibitory concentration of antibiotic, Test Organism 10: Test Organism 10, strain of Streptococcus faecalis
From the text: as §1

[4] = tested on: Staphylococcus haemolyticus; assay: as above; type: cell-based; conditions: Test Organism 7, Staphylococcus haemolyticus
From the text: as §1

Staphylococcus aureus = assay: as above; type: cell-based; conditions: for minimum inhibitory concentration of antibiotic, Test Organism 1: Test Organism 1, strain of Staphylococcus aureus; for minimum inhibitory concentration of antibiotic, Test Organism 2: Test Organism 2, strain of Staphylococcus aureus; for minimum inhibitory concentration of antibiotic, Test Organism 3: Test Organism 3, strain of Staphylococcus aureus; for minimum inhibitory concentration of antibiotic, Test Organism 4: Test Organism 4, strain of Staphylococcus aureus; for minimum inhibitory concentration of antibiotic, Test Organism 5: Test Organism 5, strain of Staphylococcus aureus
From the text: as §1

Row | pI [1] | SMILES | minimum inhibitory concentration of antibiotic, Test Organism 6 [2] [µg/mL] | minimum inhibitory concentration of antibiotic, Test Organism 8 [2] | minimum inhibitory concentration of antibiotic, Test Organism 11 [2] [µg/mL] | minimum inhibitory concentration of antibiotic, Test Organism 13 [2] [µg/mL] | minimum inhibitory concentration of antibiotic, Test Organism 12 [3] [µg/mL] | minimum inhibitory concentration of antibiotic, Test Organism 9 (Streptococcus faecalis) [µg/mL] | minimum inhibitory concentration of antibiotic, Test Organism 10 (Streptococcus faecalis) [µg/mL] | minimum inhibitory concentration of antibiotic, Test Organism 7 [4] [µg/mL] | minimum inhibitory concentration of antibiotic, Test Organism 1 (Staphylococcus aureus) [µg/mL] | minimum inhibitory concentration of antibiotic, Test Organism 2 (Staphylococcus aureus) [µg/mL] | minimum inhibitory concentration of antibiotic, Test Organism 3 (Staphylococcus aureus) [µg/mL] | minimum inhibitory concentration of antibiotic, Test Organism 4 (Staphylococcus aureus) [µg/mL] | minimum inhibitory concentration of antibiotic, Test Organism 5 (Staphylococcus aureus) [µg/mL] | minimum inhibitory concentration of antibiotic, Test Organism 14 [2] [µg/mL]
1 | 7.8 | CNC1C(=O)NC2C(=O)NC(C(=O)NC3C(=O)NC4C(=O)NC(C(=O)NC(C(=O)NCCN)c5cc(O)cc(OC6OC(CO)C(O)C(O)C6O)c5-c5cc4ccc5O)C(O)c4cc(Cl)c(c(Cl)c4)Oc4cc3cc(c4O)Oc3ccc(cc3Cl)C2O)c2cc(cc(O)c2Cl)Oc2cc1ccc2O (centres unmarked) [Compound 2o, Ardacin mannosylaglycone-(2-aminoethyl amide)] | 400 | 0.8 | 800 | 100 | 400 | 200 | 200 | 1600 | 400 | 400 | 400 | 400 | 400 | –
2 | 7.2 | CCCCCCCCCC(=O)NC1C(Oc2c3cc4cc2Oc2c(Cl)cc(cc2Cl)C(O)C2NC(=O)C(NC(=O)C4NC(=O)C4NC(=O)C(NC(=O)C(NC)c5ccc(O)c(c5)Oc5cc(O)c(Cl)c4c5)C(O)c4ccc(c(Cl)c4)O3)c3ccc(O)c(c3)-c3c(OC4OC(CO)C(O)C(O)C4O)cc(O)cc3C(C(N)=O)NC2=O)OC(C(N)=O)C(O)C1O (centres unmarked) [Compound 2j, Ardacin A diamide] | 6300 | 6.3 | 6300 | 3100 | 3100 | 200 | 100 | 3100 | 800 | 1600 | 800 | 3100 | 1600 | 800
3 | 7.3 | CNC1C(=O)NC2C(=O)NC(C(=O)NC3C(=O)NC4C(=O)NC(C(=O)NC(C(N)=O)c5cc(O)cc(OC6OC(CO)C(O)C(O)C6O)c5-c5cc4ccc5O)C(O)c4ccc(c(Cl)c4)Oc4cc3cc(c4OC3OC(C(N)=O)C(O)C(O)C3NC(=O)CCCCCCCCC(C)C)Oc3ccc(cc3)C2O)c2cc(cc(O)c2Cl)Oc2cc1ccc2O (centres unmarked) [Compound 2q, AAJ-271 C1 diamide] | 12500 | 6.3 | 12500 | 3100 | 12500 | 200 | 200 | 3100 | 800 | 1600 | 800 | > 1600 | 1600 | 3100
4 | 7.0 | CCCCCCCCCC(=O)NC1C(Oc2c3cc4cc2Oc2c(Cl)cc(cc2Cl)C(O)C2NC(=O)C(NC(=O)C4NC(=O)C4NC(=O)C(NC(=O)C(NC)c5ccc(O)c(c5)Oc5cc(O)c(Cl)c4c5)C(O)c4ccc(c(Cl)c4)O3)c3ccc(O)c(c3)-c3c(OC4OC(CO)C(O)C(O)C4O)cc(O)cc3C(C(=O)NN)NC2=O)OC(C(=O)NN)C(O)C1O (centres unmarked) [Compound 2k, Ardacin A dihydrazide] | 12500 | 12.5 | 12500 | 3100 | 6300 | 400 | 100 | 12500 | 3100 | 3100 | 1600 | 6300 | 3100 | 3100
